Experimental data taken from ChEMBL document CHEMBL1144253, “Pyrimidine containing RSV fusion inhibitors” (Bioorg Med Chem Lett, 2005).
pIC50: −log10 of the molar value.

Experiments:
Assay type in all cases: functional, cell-based
HFF [1] = assay: Inhibitory concentration against human cytomegalovirus strain Ad169 in human foreskin fibroblasts
HFF [2] = assay: Inhibitory concentration against human respiratory syncytial virus strain A2 in human foreskin fibroblasts
Vero = assay: Inhibitory concentration against herpes simplex 1 strain Patton in vero cells; details: Chlorocebus sabaeus

Compound	pIC50 (HFF [1])	pIC50 (HFF [2])	pIC50 (Vero)
O=S(=O)(O)c1cc(Nc2nc(Nc3cccc(S(=O)(=O)N(CCO)CCO)c3)nc(Nc3cccc(S(=O)(=O)N(CCO)CCO)c3)n2)ccc1-c1ccc(Nc2nc(Nc3cccc(S(=O)(=O)N(CCO)CCO)c3)nc(Nc3cccc(S(=O)(=O)N(CCO)CCO)c3)n2)cc1S(=O)(=O)O	5.64	7.05	4.83
NC(=O)CCN(CCC(N)=O)S(=O)(=O)c1cccc(Nc2nc(Nc3cccc(S(=O)(=O)N(CCC(N)=O)CCC(N)=O)c3)nc(Nc3ccc(/C=C/c4ccc(Nc5nc(Nc6cccc(S(=O)(=O)N(CCC(N)=O)CCC(N)=O)c6)nc(Nc6cccc(S(=O)(=O)N(CCC(N)=O)CCC(N)=O)c6)n5)cc4S(=O)(=O)O)c(S(=O)(=O)O)c3)n2)c1	–	6.82	–
NC(=O)CN(CC(N)=O)S(=O)(=O)c1cccc(Nc2cc(Nc3ccc(-c4ccc(Nc5cc(Nc6cccc(S(=O)(=O)N(CC(N)=O)CC(N)=O)c6)nc(Nc6cccc(S(=O)(=O)N(CC(N)=O)CC(N)=O)c6)n5)cc4S(=O)(=O)O)c(S(=O)(=O)O)c3)nc(Cl)n2)c1	5.15	5.74	4.72
O=S(=O)(O)c1cc(Nc2cc(Nc3cccc(S(=O)(=O)N(CCO)CCO)c3)nc(Nc3cccc(S(=O)(=O)N(CCO)CCO)c3)n2)ccc1-c1ccc(Nc2cc(Nc3cccc(S(=O)(=O)N(CCO)CCO)c3)nc(Nc3cccc(S(=O)(=O)N(CCO)CCO)c3)n2)cc1S(=O)(=O)O	5.36	6.09	4.77
NC(=O)CN(CC(N)=O)S(=O)(=O)c1cccc(Nc2cc(Nc3ccc(-c4ccc(Nc5nc(Nc6cccc(S(=O)(=O)N(CC(N)=O)CC(N)=O)c6)ncc5Cl)cc4S(=O)(=O)O)c(S(=O)(=O)O)c3)nc(Cl)n2)c1	4.86	5.46	4.60
NC(=O)CCN(CCC(N)=O)S(=O)(=O)c1cccc(Nc2nc(Nc3cccc(S(=O)(=O)N(CCC(N)=O)CCC(N)=O)c3)nc(Nc3ccc(-c4ccc(Nc5nc(Nc6cccc(S(=O)(=O)N(CCC(N)=O)CCC(N)=O)c6)nc(Nc6cccc(S(=O)(=O)N(CCC(N)=O)CCC(N)=O)c6)n5)cc4S(=O)(=O)O)c(S(=O)(=O)O)c3)n2)c1	–	7.10	–
NC(=O)CN(CC(N)=O)S(=O)(=O)c1cccc(Nc2nc(Nc3cccc(S(=O)(=O)N(CC(N)=O)CC(N)=O)c3)nc(Nc3ccc(-c4ccc(Nc5nc(Nc6cccc(S(=O)(=O)N(CC(N)=O)CC(N)=O)c6)nc(Nc6cccc(S(=O)(=O)N(CC(N)=O)CC(N)=O)c6)n5)cc4S(=O)(=O)O)c(S(=O)(=O)O)c3)n2)c1 [RF-1461]	5.59	7.30	5.11
NC(=O)CCN(CCC(N)=O)S(=O)(=O)c1cccc(Nc2nc(Cl)nc(Nc3ccc(-c4ccc(Nc5nc(Nc6cccc(S(=O)(=O)N(CCC(N)=O)CCC(N)=O)c6)nc(Nc6cccc(S(=O)(=O)N(CCC(N)=O)CCC(N)=O)c6)n5)cc4S(=O)(=O)O)c(S(=O)(=O)O)c3)n2)c1	4.77	6.60	–
NC(=O)CN(CC(N)=O)S(=O)(=O)c1cccc(Nc2nc(Cl)cc(Nc3ccc(-c4ccc(Nc5cc(Cl)nc(Cl)n5)cc4S(=O)(=O)O)c(S(=O)(=O)O)c3)n2)c1	4.60	4.78	4.33
NC(=O)CCCN(CCCC(N)=O)S(=O)(=O)c1cccc(Nc2nc(Nc3cccc(S(=O)(=O)N(CCCC(N)=O)CCCC(N)=O)c3)nc(Nc3ccc(-c4ccc(Nc5nc(Nc6cccc(S(=O)(=O)N(CCCC(N)=O)CCCC(N)=O)c6)nc(Nc6cccc(S(=O)(=O)N(CCCC(N)=O)CCCC(N)=O)c6)n5)cc4S(=O)(=O)O)c(S(=O)(=O)O)c3)n2)c1	–	7.00	–
